The supplement of paper PMC10307832

Legend:
Assay in all cases: relative viability (nuclei count vs DMSO), 5 days (fraction); higher = more cells survive
Midostaurin + Dasatinib = compound: CO[C@@H]1[C@H](N(C)C(=O)c2ccccc2)C[C@H]2O[C@]1(C)n1c3ccccc3c3c4c(c5c6ccccc6n2c5c31)C(=O)NC4 [Midostaurin] + Cc1nc(Nc2ncc(C(=O)Nc3c(C)cccc3Cl)s2)cc(N2CCN(CCO)CC2)n1 [Dasatinib] (partner 0.075 µM)
How it was run: (§1)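 Lung cancer cell lines in 1536-well plates got either a single drug or a fixed anchor-drug dose together with five library-drug doses (not always all listed) in √10 steps, by pin tool, on the day after seeding. Nuclei were counted after 5 days, and relative viability is the treated-to-vehicle ratio of nuclei counts. Values are medians of duplicate plates.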

Midostaurin + Olaparib = compound: CO[C@@H]1[C@H](N(C)C(=O)c2ccccc2)C[C@H]2O[C@]1(C)n1c3ccccc3c3c4c(c5c6ccccc6n2c5c31)C(=O)NC4 [Midostaurin] + O=C(c1cc(Cc2n[nH]c(=O)c3ccccc23)ccc1F)N1CCN(C(=O)C2CC2)CC1 [Olaparib] (partner 8 µM)
How it was run: as §1

[1] = compound: COc1cc(-c2nn([C@H]3CC[C@H](N4CCN(C(C)=O)CC4)CC3)c3ncnc(N)c23)ccc1NC(=O)c1cc2ccccc2n1C + CC(=O)Nc1cccc(-n2c(=O)n(C3CC3)c(=O)c3c(Nc4ccc(I)cc4F)n(C)c(=O)c(C)c32)c1 [Trametinib] (partner 0.02 µM)
How it was run: as §1

[2] = compound: COc1cc(-c2nn([C@H]3CC[C@H](N4CCN(C(C)=O)CC4)CC3)c3ncnc(N)c23)ccc1NC(=O)c1cc2ccccc2n1C + COc1cccc2cc(-c3nc([C@H]4CC[C@H](C(=O)O)CC4)n4ncnc(N)c34)[nH]c12 [OSI-027] (partner 0.5 µM)
How it was run: as §1

[3] = compound: COc1cc(-c2nn([C@H]3CC[C@H](N4CCN(C(C)=O)CC4)CC3)c3ncnc(N)c23)ccc1NC(=O)c1cc2ccccc2n1C + C[C@@H](Oc1cc(-c2cnn(C3CCNCC3)c2)cnc1N)c1c(Cl)ccc(F)c1Cl [Crizotinib] (partner 1 µM)
How it was run: as §1

Row | Cell Line | relative viability (Midostaurin + Dasatinib; first compound 0.01 µM) | relative viability (Midostaurin + Dasatinib; first compound 0.03162 µM) | relative viability (Midostaurin + Dasatinib; first compound 0.1 µM) | relative viability (Midostaurin + Dasatinib; first compound 0.3162 µM) | relative viability (Midostaurin + Olaparib; first compound 0.01 µM) | relative viability (Midostaurin + Olaparib; first compound 0.03162 µM) | relative viability (Midostaurin + Olaparib; first compound 0.1 µM) | relative viability (Midostaurin + Olaparib; first compound 0.3162 µM) | relative viability ([1]; first compound 0.0128 µM) | relative viability ([1]; first compound 0.04048 µM) | relative viability ([1]; first compound 0.128 µM) | relative viability ([1]; first compound 1.28 µM) | relative viability ([2]; first compound 0.0128 µM) | relative viability ([2]; first compound 0.04048 µM) | relative viability ([2]; first compound 0.128 µM) | relative viability ([2]; first compound 1.28 µM) | relative viability ([3]; first compound 0.0128 µM) | relative viability ([3]; first compound 0.04048 µM) | relative viability ([3]; first compound 0.128 µM) | relative viability ([3]; first compound 1.28 µM)
1 | NCI-H2085 | 0.29 | 0.273 | 0.26 | 0.236 | 0.76 | 0.708 | 0.834 | 0.711 | 0.611 | 0.643 | 0.405 | 0.334 | 0.716 | 0.593 | 0.774 | 0.519 | 0.86 | 0.912 | 0.977 | 0.695
2 | LC-2-ad | 0.476 | 0.582 | 0.579 | 0.537 | 0.738 | 0.688 | 0.673 | 0.691 | 0.956 | 0.536 | 0.895 | 0.895 | 0.932 | 0.776 | 0.864 | 0.691 | 0.443 | 0.399 | 0.414 | 0.409
3 | COR-L 105 | 0.351 | 0.396 | 0.385 | 0.285 | 0.829 | 0.626 | 0.527 | 0.616 | 0.481 | 0.489 | 0.412 | 0.298 | 0.59 | 0.799 | 0.636 | 0.343 | 0.771 | 0.864 | 0.594 | 0.678
4 | NCI-H1355 | 0.796 | 0.777 | 0.743 | 0.818 | 0.777 | 0.78 | 0.77 | 0.68 | 0.416 | 0.313 | 0.387 | 0.447 | 0.47 | 0.315 | 0.507 | 0.433 | 1.15 | 1.07 | 1.06 | 0.946
5 | H3255 | 0.346 | 0.29 | 0.37 | 0.354 | 0.515 | 0.538 | 0.498 | 0.533 | 0.611 | 0.44 | 0.613 | 0.499 | 0.564 | 0.476 | 0.573 | 0.552 | 0.938 | 0.981 | 0.81 | 0.468
6 | NCI-H1993 | 0.65 | 0.608 | 0.668 | 0.419 | 1.08 | 0.791 | 1.01 | 1.11 | 0.504 | 0.489 | 0.562 | 0.481 | 0.52 | 0.575 | 0.552 | 0.431 | 0.925 | 0.902 | 0.803 | 0.645
7 | NCI-H1734 | 0.404 | 0.632 | 0.477 | 0.338 | 0.603 | 0.562 | 0.62 | 0.69 | 0.721 | 0.445 | 0.664 | 0.598 | 0.659 | 0.551 | 0.613 | 0.485 | 0.745 | 0.596 | 0.669 | 0.56
8 | HOP-62 | 0.674 | 0.675 | 0.643 | 0.509 | 0.321 | 0.452 | 0.414 | 0.372 | 0.428 | 0.173 | 0.376 | 0.296 | 0.86 | 0.734 | 0.817 | 0.707 | 0.887 | 0.957 | 0.803 | 0.714
9 | LOU-NH91 | 0.594 | 0.534 | 0.606 | 0.582 | 0.922 | 0.828 | 0.88 | 0.943 | 0.821 | 0.828 | 0.822 | 0.728 | 0.729 | 0.803 | 0.731 | 0.745 | 0.745 | 0.811 | 0.753 | 0.638
10 | ChaGo-K-1 | 0.509 | 0.584 | 0.541 | 0.689 | 0.439 | 0.404 | 0.338 | 0.433 | 0.872 | 0.904 | 0.722 | 0.68 | 0.607 | 0.532 | 0.519 | 0.464 | 1.17 | 1.13 | 1.03 | 0.882
11 | NCI-H2228 | 0.501 | 0.622 | 0.534 | 0.526 | 0.618 | 0.588 | 0.744 | 0.556 | 0.448 | 0.146 | 0.539 | 0.377 | 0.706 | 0.637 | 0.573 | 0.45 | 0.426 | 0.489 | 0.428 | 0.276
12 | PC-14 | 0.251 | 0.253 | 0.218 | 0.182 | 0.328 | 0.281 | 0.206 | 0.199 | 0.819 | 0.721 | 0.663 | 0.569 | 0.896 | 1.07 | 0.798 | 0.913 | 0.941 | 0.98 | 0.965 | 0.87
13 | NCI-H1437 | 0.354 | 0.458 | 0.35 | 0.368 | 0.618 | 0.665 | 0.629 | 0.516 | 0.527 | 0.609 | 0.492 | 0.33 | 0.796 | 0.992 | 0.861 | 0.838 | 1.06 | 0.877 | 0.922 | 0.846
